Experimental data as given in ChEMBL document CHEMBL6134830, “Naturally inspired chimeric quinolone derivatives to reverse bacterial drug resistance” (Eur J Med Chem, 2025).
≈ marks a conversion by molar mass, not a printed value.

Tests used:
[1] = test system: Staphylococcus aureus; assay: Antimicrobial activity against Staphylococcus aureus ATCC 25923 assessed as inhibition of bacterial growth measured after 20 hrs by CLSI protocol based Muller Hinton broth assay; format: functional
[2] = test system: Enterococcus gallinarum; assay: Antimicrobial activity against Enterococcus gallinarum ATCC 49573 assessed as inhibition of bacterial growth measured after 20 hrs by CLSI protocol based Muller Hinton broth assay; format: functional
[3] = test system: Escherichia coli; assay: Antimicrobial activity against Escherichia coli ATCC 25922 assessed as inhibition of bacterial growth measured after 20 hrs by CLSI protocol based Muller Hinton broth assay; format: functional
[4] = test system: Staphylococcus aureus; assay: Antimicrobial activity against Methicillin-resistant Staphylococcus aureus ATCC 43300 assessed as inhibition of bacterial growth measured after 20 hrs by CLSI protocol based Muller Hinton broth assay; format: functional
[5] = test system: Pseudomonas aeruginosa; assay: Antimicrobial activity against Pseudomonas aeruginosa ATCC 27853 assessed as inhibition of bacterial growth measured after 20 hrs by CLSI protocol based Muller Hinton broth assay; format: functional
[6] = test system: Acinetobacter baumannii; assay: Antimicrobial activity against Acinetobacter baumannii ATCC 19606 assessed as inhibition of bacterial growth measured after 20 hrs by CLSI protocol based Muller Hinton broth assay; format: functional
[7] = Hemolytic activity in Sprague-Dawley rat Red blood cells at 100 ug/ml incubated for 1 hrs by absorbance based analysis; format: toxicity, cell-based; settings: erythrocyte, dose 100 µg/ml
[8] = test system: Enterococcus faecalis; assay: Antimicrobial activity against Enterococcus faecalis ATCC 19433 assessed as inhibition of bacterial growth measured after 20 hrs by CLSI protocol based Muller Hinton broth assay; format: functional
[9] = test system: L929; assay: Cytotoxicity against mouse L929 cells assessed as reduction in cell viability at 25 microg/mL incubated for 24 hrs by MTT assay; format: toxicity, cell-based; settings: l929, 24 h, dose 25 µg/ml
[10] = Hemolytic activity in Sprague-Dawley rat Red blood cells at 200 ug/ml incubated for 1 hr by absorbance based analysis; format: toxicity, cell-based; settings: erythrocyte, dose 200 µg/ml

Row | Structure (SMILES) | MIC [1] [µg/mL] | further results
1 | N=C(N)NCCC[C@H](N)C(=O)N1CCN(c2cc3c(cc2F)c(=O)c(C(=O)O)cn3C2CC2)CC1 | ≥ 12.5 | –
2 | CCCCCCCCCNC(=O)[C@H](CCCNC(=N)N)NC(=O)[C@H](CCCNC(=N)N)NC(=O)[C@H](CCCNC(=N)N)NC(=O)c1ccc(C(=O)N2CCN(c3cc4c(cc3F)c(=O)c(C(=O)O)cn4C3CC3)CC2)cc1 | > 50 | –
3 | CCCCCCCCCC(=O)N[C@@H](CCCCN)C(=O)N1CCN(c2cc3c(cc2F)c(=O)c(C(=O)O)cn3C2CC2)CC1 | 6.25 (≈ 10.2 µM) | –
4 | CCCCCCCCCNC(=O)[C@H](CCCCN)NC(=O)[C@H](CCCCN)NC(=O)[C@H](CCCNC(=N)N)NC(=O)c1ccc(C(=O)N2CCN(c3cc4c(cc3F)c(=O)c(C(=O)O)cn4C3CC3)CC2)cc1 | 3.12 (≈ 3.07 µM) | –
5 | CCCCCCCCCCCCNC(=O)[C@H](CCCCN)NC(=O)[C@H](CCCCN)NC(=O)[C@H](CCCCN)NC(=O)CCCCCCCCCCCNC(=O)CCC(=O)N1CCN(c2cc3c(cc2F)c(=O)c(C(=O)O)cn3C2CC2)CC1 | 3.12 (≈ 2.65 µM) | MIC [2]: 6.25 µg/mL (≈ 5.29 µM); MIC [3]: 12.5 µg/mL (≈ 10.6 µM); MIC [4]: 6.25 µg/mL (≈ 5.29 µM); MIC [5]: 6.25 µg/mL (≈ 5.29 µM); MIC [6]: 6.25 µg/mL (≈ 5.29 µM); Activity [7]: Toxic; MIC [8]: 12.5 µg/mL (≈ 10.6 µM); Activity [9]: Toxic
6 | CCCCCCCCCCCCNC(=O)[C@H](CCCCN)NC(=O)[C@H](CCCCN)NC(=O)[C@H](CCCCN)NC(=O)CCC(=O)N1CCN(c2cc3c(cc2F)c(=O)c(C(=O)O)cn3C2CC2)CC1 | > 50 | –
7 | NCCCC[C@H](NC(=O)c1ccc(C(=O)N2CCN(c3cc4c(cc3F)c(=O)c(C(=O)O)cn4C3CC3)CC2)cc1)C(=O)N[C@@H](CCCCN)C(=O)N[C@@H](CCCCN)C(=O)NCc1ccc(-c2ccccc2)cc1 | 1.56 (≈ 1.52 µM) | MIC [2]: 50 µg/mL (≈ 48.6 µM); MIC [3]: 25 µg/mL (≈ 24.3 µM); Activity [10]: Non-toxic; MIC [4]: 6.25 µg/mL (≈ 6.07 µM); MIC [5]: 25 µg/mL (≈ 24.3 µM); MIC [6]: 25 µg/mL (≈ 24.3 µM); MIC [8]: 50 µg/mL (≈ 48.6 µM)
8 | CCCCCCCCCCCC(=O)N[C@@H](CCCNC(=N)N)C(=O)N1CCN(c2cc3c(cc2F)c(=O)c(C(=O)O)cn3C2CC2)CC1 | 6.25 (≈ 9.33 µM) | –
9 | O=C(CC12CC3CC(CC(C3)C1)C2)N[C@@H](Cc1c[nH]cn1)C(=O)N1CCN(c2cc3c(cc2F)c(=O)c(C(=O)O)cn3C2CC2)CC1 | 6.25 (≈ 9.69 µM) | –
10 | CCCCCCCCCNC(=O)[C@H](Cc1c[nH]cn1)NC(=O)[C@H](CCCCN)NC(=O)[C@H](CCCCN)NC(=O)c1ccc(C(=O)N2CCN(c3cc4c(cc3F)c(=O)c(C(=O)O)cn4C3CC3)CC2)cc1 | 6.25 (≈ 6.26 µM) | –
11 | NCCCC[C@H](NC(=O)c1ccc(C(=O)N2CCN(c3cc4c(cc3F)c(=O)c(C(=O)O)cn4C3CC3)CC2)cc1)C(=O)NCc1c(Cl)cccc1Cl | 12.5 (≈ 16.3 µM) | –
12 | NCCCC[C@H](NC(=O)c1ccc(C(=O)N2CCN(c3cc4c(cc3F)c(=O)c(C(=O)O)cn4C3CC3)CC2)cc1)C(=O)NCc1c(F)cccc1Cl | 25 (≈ 33.4 µM) | –
13 | CCCCCCCCCCCCNC(=O)[C@H](CCCCN)NC(=O)[C@H](CCCCN)NC(=O)[C@H](CCCCN)NC(=O)CCNC(=O)CCC(=O)N1CCN(c2cc3c(cc2F)c(=O)c(C(=O)O)cn3C2CC2)CC1 | > 50 | –
14 | CCCCCCCCCNC(=O)[C@H](CCCNC(=N)N)NC(=O)[C@H](CCCCN)NC(=O)[C@H](CCCCN)NC(=O)c1ccc(C(=O)N2CCN(c3cc4c(cc3F)c(=O)c(C(=O)O)cn4C3CC3)CC2)cc1 | 3.12 (≈ 3.07 µM) | –

Second part, led by results:

Row | MIC [1] [µg/mL] | Structure (SMILES) | further results
15 | 3.12 (≈ 3.11 µM) | CCCCCCCCCCNC(=O)[C@H](CCCCN)NC(=O)[C@H](CCCCN)NC(=O)[C@H](CCCCN)NC(=O)c1ccc(C(=O)N2CCN(c3cc4c(cc3F)c(=O)c(C(=O)O)cn4C3CC3)CC2)cc1 | –
16 | 50 (≈ 64.5 µM) | CCCCCCCCCCCCNC(=O)[C@H](CCCCN)NC(=O)c1ccc(C(=O)N2CCN(c3cc4c(cc3F)c(=O)c(C(=O)O)cn4C3CC3)CC2)cc1 | –
17 | 6.25 (≈ 8.53 µM) | CCCCCCCCCNC(=O)[C@H](CCCCN)NC(=O)c1ccc(C(=O)N2CCN(c3cc4c(cc3F)c(=O)c(C(=O)O)cn4C3CC3)CC2)cc1 | –
18 | 25 (≈ 35.9 µM) | NCCCC[C@H](NC(=O)c1ccc(C(=O)N2CCN(c3cc4c(cc3F)c(=O)c(C(=O)O)cn4C3CC3)CC2)cc1)C(=O)NCc1ccccc1 | –
19 | 25 (≈ 36.9 µM) | CCCCCNC(=O)[C@H](CCCCN)NC(=O)c1ccc(C(=O)N2CCN(c3cc4c(cc3F)c(=O)c(C(=O)O)cn4C3CC3)CC2)cc1 | –
20 | 12.5 (≈ 17.4 µM) | CCCCCCCCNC(=O)[C@H](CCCCN)NC(=O)c1ccc(C(=O)N2CCN(c3cc4c(cc3F)c(=O)c(C(=O)O)cn4C3CC3)CC2)cc1 | –
